Results on 25 molecules are retold here after US7420056B2, “Substituted bicyclic imidazo-3-ylamine compounds” (Gruenenthal GmbH, priority 2004, dated 2008).

Structures are written as SMILES. Counter-ions that a name gives are not always drawn.

For the first assay, the system named is Rat. As to the kind of experiment: Formaldehyde test (rat), phase 2. It is filed as in vivo. The following applies: p.o., at 21.5 mg/kg.
For `CC(C)(C)Nc1c(-c2ccc(C#Cc3cccs3)s2)nc2cnccn12.Cl` [Example 110, N-tert-butyl-2-(5-(thiophen-2-ylethynyl)thiophen-2-yl)imidazo[1,2-a]pyrazin-3-amine hydrochloride], the “% inhibition, Rat p.o.” value turned out to be 61% at 21.5.

The next assay deals with mGluR5 receptor (Sus scrofa, UniProt I3LUI7). As to the kind of experiment: Affinity for the mGluR5 receptor: inhibition of 3[H]-MPEP binding in pig brain homogenate. The following applies: 10 μM compound, 5 nM 3[H]-MPEP, read-out: mGluR5 receptor inhibition of ^3[H]-MPEP binding [10 μM] in % at a concentration of the example compounds of 10 μM. The essentials: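 Test compounds were screened at 10 μM for displacement of 5 nM [3H]-MPEP from pig brain homogenate (450 μg protein, pH 8.0 Hepes buffer) over 60 min at room temperature. After filtration, scintillation counting gave the read-out. 10 μM unlabelled MPEP set nonspecific binding.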
mGluR5 receptor, sequence (I3LUI7 19-1212): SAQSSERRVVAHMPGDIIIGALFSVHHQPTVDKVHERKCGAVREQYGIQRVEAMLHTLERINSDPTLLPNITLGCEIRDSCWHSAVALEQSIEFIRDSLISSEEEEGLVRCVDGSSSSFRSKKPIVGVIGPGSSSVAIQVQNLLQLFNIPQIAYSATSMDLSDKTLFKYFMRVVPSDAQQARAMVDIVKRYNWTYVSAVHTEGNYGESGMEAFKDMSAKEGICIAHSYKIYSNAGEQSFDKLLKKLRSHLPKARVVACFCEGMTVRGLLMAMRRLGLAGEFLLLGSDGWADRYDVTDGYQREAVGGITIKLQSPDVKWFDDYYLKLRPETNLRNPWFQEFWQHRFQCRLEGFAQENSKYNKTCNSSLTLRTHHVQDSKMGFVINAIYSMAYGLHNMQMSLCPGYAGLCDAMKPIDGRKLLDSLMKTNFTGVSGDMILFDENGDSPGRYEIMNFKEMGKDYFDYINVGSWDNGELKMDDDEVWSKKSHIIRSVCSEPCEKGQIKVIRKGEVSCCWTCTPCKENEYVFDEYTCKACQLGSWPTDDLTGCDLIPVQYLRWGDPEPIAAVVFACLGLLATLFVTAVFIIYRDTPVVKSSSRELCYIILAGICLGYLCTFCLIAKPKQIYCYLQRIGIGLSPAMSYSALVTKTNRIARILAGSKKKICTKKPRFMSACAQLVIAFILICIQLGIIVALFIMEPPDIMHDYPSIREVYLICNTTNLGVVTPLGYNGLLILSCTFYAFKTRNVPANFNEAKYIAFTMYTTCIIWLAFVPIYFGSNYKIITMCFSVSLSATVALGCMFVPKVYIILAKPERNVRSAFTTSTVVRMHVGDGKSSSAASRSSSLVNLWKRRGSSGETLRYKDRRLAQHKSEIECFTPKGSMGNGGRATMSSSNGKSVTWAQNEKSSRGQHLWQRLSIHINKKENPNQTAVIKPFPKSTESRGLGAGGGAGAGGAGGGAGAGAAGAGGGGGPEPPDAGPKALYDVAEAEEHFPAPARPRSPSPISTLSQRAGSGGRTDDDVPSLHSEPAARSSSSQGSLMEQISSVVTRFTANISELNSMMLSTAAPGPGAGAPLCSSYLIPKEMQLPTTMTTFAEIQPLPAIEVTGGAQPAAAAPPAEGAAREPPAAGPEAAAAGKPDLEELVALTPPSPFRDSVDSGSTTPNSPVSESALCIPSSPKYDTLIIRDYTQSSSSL
In the case of `Cc1cccc(C#Cc2cccc(-c3nc4ccc(Cl)cn4c3NC3CCCC3)c2)n1` [Example 319, 6-chloro-N-cyclopentyl-2-(3-((6-methylpyridin-2-yl)ethynyl)phenyl)imidazo[1,2-a]pyridin-3-amine], the inhibition at 10 µM came to 81%.
For `Cc1cccc(C#Cc2cccc(-c3nc4ccc(Cl)cn4c3NC(C)(C)C)c2)n1` [Example 320, N-tert-butyl-6-chloro-2-(3-((6-methylpyridin-2-yl)ethynyl)phenyl)imidazo[1,2-a]pyridin-3-amine], the inhibition at 10 µM stood at 77%.
With `CC(C)(C)Nc1c(-c2ccc(C#Cc3ccc(Cl)s3)s2)nc2ccccn12` [Example 338, tert-butyl-{2-[5-(5-chloro-thiophen-2-ylethynyl)-thiophen-2-yl]-imidazo[1,2-a]pyridin-3-yl}-amine hydrochloride], the inhibition at 10 µM came to 52%.
Same read-out and setting: in the case of `Cc1cc(C#Cc2ccc(-c3nc4ccccn4c3NC(C)(C)C)s2)ccc1F` [Example 348, N-tert-butyl-2-(5-((4-fluoro-3-methylphenyl)ethynyl)thiophen-2-yl)imidazo[1,2-a]pyridin-3-amine hydrochloride] it was 44%; in that of `CC(C)(C)Nc1c(-c2ccc(C#Cc3cc(F)cc(F)c3)s2)nc2ccccn12` [Example 349, N-tert-butyl-2-(5-((3,5-difluorophenyl)ethynyl)thiophen-2-yl)imidazo[1,2-a]pyridin-3-amine], 39%.

The assay is the same for the next values; noted with them: 3[H]-MPEP binding.
In turn, `CC(C)(C)Nc1c(-c2ccc(C#Cc3cccs3)s2)nc2cnccn12.Cl` [Example 110, N-tert-butyl-2-(5-(thiophen-2-ylethynyl)thiophen-2-yl)imidazo[1,2-a]pyrazin-3-amine hydrochloride] returned a 50% inhibitory concentration (IC50) of 49 nM.
Molecule `CNc1c(-c2ccc(C#Cc3ccccn3)s2)nc2cnccn12` [Example 322, N-methyl-2-(5-(pyridin-2-ylethynyl)thiophen-2-yl)imidazo[1,2-a]pyrazin-3-amine] came in with a concentration for half-maximal inhibition (IC50) of 120 nM.
The molecule `CC(C)(C)CC(C)(C)Nc1c(-c2ccc(C#Cc3ccccn3)s2)nc2ccccn12` [Example 324, [2-(5-pyridin-2-ylethynyl-thiophen-2-yl)-imidazo[1,2-a]pyridin-3-yl]-(1,1,3,3-tetramethyl-butyl)-amine] returned a half-maximal inhibitory concentration (IC50) of 59 nM.
`CC(C)(C)Nc1c(-c2ccc(C#Cc3ncccn3)s2)nc2ccccn12` [Example 325, tert-butyl-[2-(5-pyrimidin-2-ylethynyl-thiophen-2-yl)-imidazo[1,2-a]pyridin-3-yl]-amine hydrochloride] registered a concentration for half-maximal inhibition (IC50) of 13 nM.
The molecule `CC(C)(C)Nc1c(-c2ccc(C#Cc3ncccc3N)s2)nc2ccccn12` [Example 326, {2-[5-(3-amino-pyridin-2-ylethynyl)-thiophen-2-yl]-imidazo[1,2-a]pyridin-3-yl}-tert-butyl-amine] gave an IC50 of 39 nM.
Same read-out and setting: in the case of `CC(C)(C)Nc1c(-c2ccc(C#Cc3nccs3)s2)nc2ccccn12` [Example 332, tert-butyl-[2-(5-thiazol-2-ylethynyl-thiophen-2-yl)-imidazo[1,2-a]pyridin-3-yl]-amine hydrochloride] it was 14 nM; in that of `CC(C)(C)Nc1c(-c2ccc(C#Cc3cccc(OC(F)(F)F)c3)s2)nc2cnccn12` [Example 333, tert-butyl-{2-[5-(3-trifluoromethoxy-phenylethynyl)-thiophen-2-yl]-imidazo[1,2-a]pyrazin-3-yl}-amine], 420 nM.
Molecule `CC(C)(C)Nc1c(-c2ccc(C#Cc3cccc(C4OCCO4)c3)s2)nc2ccccn12` [Example 334, tert-butyl-{2-[5-(3-[1,3]dioxolan-2-yl-phenylethynyl)-thiophen-2-yl]-imidazo[1,2-a]pyridin-3-yl}-amine] yielded an IC50 of 10000 nM.
Same read-out and setting: to `CC(C)(C)Nc1c(-c2ccc(C#Cc3ncccc3F)s2)nc2ccccn12` [Example 336, tert-butyl-{2-[5-(3-fluoro-pyridin-2-ylethynyl)-thiophen-2-yl]-imidazo[1,2-a]pyridin-3-yl}-amine hydrochloride] belongs 6.1 nM; to `Cn1cncc1C#Cc1ccc(-c2nc3ccccn3c2NC(C)(C)C)s1` [Example 337, tert-butyl-{2-[5-(3-methyl-3H-imidazol-4-ylethynyl)-thiophen-2-yl]-imidazo[1,2-a]pyridin-3-yl}-amine hydrochloride], 6260 nM; to `Cc1ccc(C#Cc2ccc(-c3nc4ccccn4c3NC(C)(C)C)s2)nc1` [Example 339, tert-butyl-{2-[5-(5-methyl-pyridin-2-ylethynyl)-thiophen-2-yl]-imidazo[1,2-a]pyridin-3-yl}-amine hydrochloride], 320 nM.
`CC(=O)c1cccc(C#Cc2ccc(-c3nc4ccccn4c3NC(C)(C)C)s2)c1` [Example 340, 1-{3-[5-(3-tert-butylamino-imidazo[1,2-a]pyridin-2-yl)-thiophen-2-ylethynyl]-phenyl}-ethanone hydrochloride] returned an IC50 of 620 nM.
`CC(C)(C)Nc1c(-c2ccc(C#Cc3cccc(CO)c3)s2)nc2ccccn12` [Example 341, {3-[5-(3-tert-butylamino-imidazo[1,2-a]pyridin-2-yl)-thiophen-2-ylethynyl]-phenyl}-methanol hydrochloride] returned a 50% inhibitory concentration (IC50) of 240 nM.
Regarding `COc1cccnc1C#Cc1ccc(-c2nc3ccccn3c2NC(C)(C)C)s1` [Example 342, N-tert-butyl-2-(5-((3-methoxypyridin-2-yl)ethynyl)thiophen-2-yl)imidazo[1,2-a]pyridin-3-amine], the IC50 worked out at 1360 nM.
In turn, `CC(C)(C)Nc1c(-c2ccc(C#Cc3cccs3)s2)nc2ccccn12` [Example 343, N-tert-butyl-2-(5-(thiophen-2-ylethynyl)thiophen-2-yl)imidazo[1,2-a]pyridin-3-amine hydrochloride] had a concentration for half-maximal inhibition (IC50) of 93 nM.
As for `CC(C)(C)Nc1c(-c2ccc(C#Cc3ccc(F)c(C#N)c3)s2)nc2ccccn12` [Example 344, 5-((5-(3-(tert-butylamino)imidazo[1,2-a]pyridin-2-yl)thiophen-2-yl)ethynyl)-2-fluorobenzonitrile hydrochloride], the half-maximal inhibitory concentration (IC50) came to 170 nM.
On the same count and under the same terms, to `COCc1cccc(C#Cc2ccc(-c3nc4ccccn4c3NC(C)(C)C)s2)c1` [Example 346, N-tert-butyl-2-(5-((3-(methoxymethyl)phenyl)ethynyl)thiophen-2-yl)imidazo[1,2-a]pyridin-3-amine] belongs 670 nM; to `CC(C)(C)Nc1c(-c2ccc(C#Cc3cccc(N)c3)s2)nc2ccccn12` [Example 347, 2-(5-((3-aminophenyl)ethynyl)thiophen-2-yl)-N-tert-butylimidazo[1,2-a]pyridin-3-amine hydrochloride], 920 nM; to `CC(C)(C)Nc1c(-c2ccc(C#Cc3ccsc3)s2)nc2ccccn12` [Example 350, N-tert-butyl-2-(5-(thiophen-3-ylethynyl)thiophen-2-yl)imidazo[1,2-a]pyridin-3-amine hydrochloride], 570 nM.
Turning to `Cc1cccnc1C#Cc1ccc(-c2nc3ccccn3c2NC(C)(C)C)s1` [Example 351, N-tert-butyl-2-(5-((3-methylpyridin-2-yl)ethynyl)thiophen-2-yl)imidazo[1,2-a]pyridin-3-amine hydrochloride], the IC50 amounted to 230 nM.
